Source: article PMC6285983, “Novel broad spectrum virucidal molecules against enveloped viruses” (PLoS ONE, 2018)

Legend:
HSV-2 = HSV-2 plaquing efficiency assay, compound preincubated with virus 1 h at 37°C; format: cell-based; details: Human alphaherpesvirus 2, HSV-2, Vero cells, 1 h pre-incubation virus/compound; for EC50: plaques at 24 h, read-out: EC50 (95% C.I.); for EC90: read-out: EC90 (95% C.I.)
[1] = Cell viability MTS assay on Vero cells; details: African green monkey, CC50, Vero cells, MTS
in vitro = details: African green monkey
[2] = In vitro lipoperoxidation test (TBA assay, MDA); details: 0.05% w/w added to liposomes, exposure to compound 9d
[3] = test system: HSV-2 acyclovir resistant strain; assay: microbe, parasite or virus in culture; format: cell-based; details: Human alphaherpesvirus 2

Molecule	EC50 (HSV-2)	EC90 (HSV-2)	CC50 [1]	melting point	CC50 (in vitro)	reduction of the peroxidation of linoleic acid [2]	EC50 [3]
O=C1/C(=C/c2ccc(-c3cc(C(F)(F)F)ccc3Cl)o2)SC(=S)N1Cc1ccc(F)cc1 [Compound 9e, (Z)-5-((5-(2-chloro-5-(trifluoromethyl)phenyl)furan-2-yl)methylene)-3-(4-fluorobenzyl)-2-thioxothiazolidin-4-one]	767 nM	5740 nM	> 300000 nM				
O=C(O)c1ccc(-c2ccc(/C=C3\SC(=S)N(CCc4c[nH]c5ccccc45)C3=O)o2)cc1O [Compound 9a, (Z)-4-(5-((3-(2-(1H-Indol-3-yl)ethyl)-4-oxo-2-thioxothiazolidin-5-ylidene)methyl)furan-2-yl)-2-hydroxybenzoic acid]	630 nM	2050 nM	291000 nM	254 °C (dec.)			
O=C1NC(=S)N(Cc2ccccc2)C(=O)/C1=C\c1ccc(-c2ccc(C(=O)O)c(O)c2)o1 [Compound 15a, (Z)-4-(5-((1-benzyl-4,6-dioxo-2-thioxotetrahydropyrimidin-5(2H)-ylidene)methyl)furan-2-yl)-2-hydroxybenzoic acid]	1030 nM	57000 nM			> 300000 nM		
(±)-α-tocopherol [reference compound]						50.5%	
O=C(O)c1ccc(-c2ccc(/C=C3\SC(=S)N(CCc4ccc(Br)cc4)C3=O)o2)cc1O [Compound 9b, (Z)-4-(5-((3-(4-bromophenethyl)-4-oxo-2-thio-oxothiazolidin-5-ylidene)methyl)furan-2-yl)-2-hydroxybenzoic acid]	120 nM	404 nM	13500 nM	275 °C (dec.)			
Nc1nc2c(ncn2COCCO)c(=O)[nH]1 [acyclovir, reference compound]							319000 nM
O=C1NC(=S)N(CCc2ccccc2)C(=O)/C1=C\c1ccc(-c2ccc(C(=O)O)c(O)c2)o1 [Compound 15b, (Z)-4-(5-((4,6-dioxo-1-phenethyl-2-thioxotetrahydropyrimidin-5(2H)-ylidene)methyl)furan-2-yl)-2-hydroxybenzoic acid]	48.4 nM	10900 nM			> 300000 nM		
COc1ccc(CCN2C(=O)/C(=C/c3ccc(-c4ccc(C(=O)O)c(O)c4)o3)SC2=S)cc1 [Compound 9c, (Z)-2-hydroxy-4-(5-((3-(4-methoxyphenethyl)-4-oxo-2-thioxothiazolidin-5-ylidene)methyl)furan-2-yl)benzoic acid]	60 nM	145 nM	9870 nM	265 °C (dec.)			
